Source: US8815852B2, “Carbamoyloxy arylalkan arylpiperazine analgesics” (SK Biopharmaceuticals Co., Ltd., priority 2007, dated 2014)
Like-named read-outs stand apart in the source and are kept apart here.

Legend:
male ICR mouse [1] = assay: Formalin test - late phase in mouse; assay type: in vivo; conditions: po, unit inferred
Protocol: 3. Formalin Test—Late Phase in Mouse
A formalin test is another model for measuring an analgesic effect of drugs. […] These pain behaviors have a biphasic pattern, and therefore they are divided into an early-phase behavior within […] after the formalin administration; and a late-phase behavior up to 10 to 60 minutes. The medicinal effect observed in the formalin test-late phase means an analgesic effect of the test material in the inflammatory pain model, and also becomes a measure that may predict the medicinal effects in the neuropathic pain model (Vissers K et. al, 2003). A test material was orally administered to a male ICR mouse weighing 30 to 35 g. After 1 hour of the oral administration, 20 μl of a 2.5% formalin solution was subcutaneously injected into the planta surface of a mouse's hindlimb to induce pain. […] The analgesic effect of the test material is represented by the ‘suppression ratio of pain response’ {[(Pain response time of Vehicle-administered group−Pain response time of Test material-administered group)/(Pain response time of Vehicle-administered group)]×100%}, or ‘50% of Effective amount (ED50; an amount of a test material that is required to suppress 50% of pain behaviors) of Test material’. The ED50 (median effective dose) was determined by calculating the suppression ratio of pain response in at least three doses of test materials and subjecting to the linear regression.

5-HT1A receptor = 5-HT1A receptor (Rattus norvegicus (Rat), UniProt P19327); assay: Binding to 5-HT1A receptor ([3H]-8-OH-DPAT, rat cortical membranes); design: species or system Sprague-Dawley (SD) rats; conditions: for IC50: 2 nM [3H]-8-OH-DPAT, read-out: 5-HT1A: IC50 (Concentration required to be 50% suppressed); for inhibition at 1 µM: 1 h, read-out: 5-HT1A: Suppression
Sequence of 5-HT1A receptor (P19327 whole entry): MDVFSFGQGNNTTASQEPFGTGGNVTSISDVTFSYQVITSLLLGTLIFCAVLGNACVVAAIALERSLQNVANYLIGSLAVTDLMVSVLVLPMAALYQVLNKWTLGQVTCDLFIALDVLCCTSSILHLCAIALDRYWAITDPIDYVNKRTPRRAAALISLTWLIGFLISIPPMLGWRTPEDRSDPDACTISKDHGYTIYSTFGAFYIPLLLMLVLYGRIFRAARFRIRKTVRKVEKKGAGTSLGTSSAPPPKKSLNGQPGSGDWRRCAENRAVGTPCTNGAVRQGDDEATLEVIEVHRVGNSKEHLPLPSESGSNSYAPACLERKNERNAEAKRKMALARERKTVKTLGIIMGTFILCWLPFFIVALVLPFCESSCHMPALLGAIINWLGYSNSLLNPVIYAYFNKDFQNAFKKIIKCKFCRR
Protocol: Binding to 5-HT1A Receptor
6-week-old Sprague-Dawley (SD) rats were anesthetized in an ether container for 5 minutes, brains were separated from rats, and cortical regions were then separated from the brains of the rats. The cortical regions of the rats were put into a Tris-HCl buffer solution (50 mM, pH 7.4) and homogenized, and the homogenate was centrifuged twice at 4? at a rotary speed of 50,000 g to obtain a precipitate (membrane protein). The precipitate was put into a buffer solution, and homogenized, which was used later as a protein source. 2 nM [3H]-8-OH-DPAT was used as a radioactive isotope, and 10 uM serotonin was used to remove non-specific bindings. 25 ul of the compound, 100 ul of an aqueous radioactive isotope solution, and 100 ul of the protein source were put together, and kept at 25° C. for 1 hour. The resulting mixture was filtered with a membrane filter in a 96-well harvester when the 96-well plate reaction was completed. The competitivity of the compound to [3H]-8-OH-DPAT was determined by taking the membrane filter and measuring the radioactivity of the membrane filter in a scintillation counter, and an IC50 value was determined by measuring the increasing concentration of the compound. The specific reaction of the compound accounted for 90% or more. The general experiments were carried out according to the method by Middlemiss et al. (1984, Eur. J. Pharmacol.).

5-HT2A receptor = 5-HT2A receptor (Rattus norvegicus (Rat), UniProt P14842); assay: Binding to 5-HT2A receptor ([3H]-Ketanserin, rat cortical membranes); design: species or system Sprague-Dawley (SD) rats; conditions: for IC50: 0.5 nM [3H]-Ketanserin, read-out: 5-HT2A: IC50 (Concentration required to be 50% suppressed); for inhibition at 1 µM: 1 h, read-out: 5-HT2A: Suppression
Sequence of 5-HT2A receptor (P14842 whole entry): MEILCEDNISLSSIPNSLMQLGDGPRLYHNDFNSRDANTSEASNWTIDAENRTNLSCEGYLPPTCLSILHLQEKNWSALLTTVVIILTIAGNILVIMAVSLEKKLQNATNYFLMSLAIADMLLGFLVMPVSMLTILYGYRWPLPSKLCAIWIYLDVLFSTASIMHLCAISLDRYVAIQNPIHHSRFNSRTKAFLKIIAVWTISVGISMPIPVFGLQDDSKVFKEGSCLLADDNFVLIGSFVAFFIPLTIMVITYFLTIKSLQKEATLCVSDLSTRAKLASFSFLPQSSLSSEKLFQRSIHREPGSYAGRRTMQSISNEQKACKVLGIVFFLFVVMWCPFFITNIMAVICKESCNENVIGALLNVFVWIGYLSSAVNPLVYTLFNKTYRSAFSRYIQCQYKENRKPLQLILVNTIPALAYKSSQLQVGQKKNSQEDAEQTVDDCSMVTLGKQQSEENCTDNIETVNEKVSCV
Protocol: Binding to 5-HT2A Receptor
6-week-old Sprague-Dawley (SD) rats were anesthetized in an ether container for 5 minutes, brains were separated from rats, and cortical regions were then separated from the brains of the rats. The cortical regions of the rats were put into a Tris-HCl buffer solution (50 mM, pH 7.7) and homogenized, and the homogenate was centrifuged twice at 4° C. at a rotary speed of 50,000 g to obtain a precipitate (membrane protein). The precipitate was put into a buffer solution, and homogenized, which was used later as a protein source. 0.5 nM [3H]-Ketanserin was used as a radioactive isotope, and 10 uM serotonin was used to remove non-specific bindings. 25 ul of the compound, 100 ul of an aqueous radioactive isotope solution, and 100 ul of the protein source were put together, and kept at 25° C. for 1 hour. The resulting mixture was filtered with a membrane filter in a 96-well harvester when the 96-well plate reaction was completed. The competitivity of the compound to [3H]-Ketanserin was determined by taking the membrane filter and measuring the radioactivity in a scintillation counter, and an IC50 value was determined by measuring the increasing concentration of the compound. The specific reaction of the compound accounted for 90% or more. The general experiments were carried out according to the method by Leysen et al. (1982, Eur. J. Pharmacol).

male ICR mouse [2] = assay: Acetic acid-induced writhing test in mouse; assay type: in vivo; conditions: Mus musculus; for ED50: unit not given (method doses in mg/kg), read-out: AA Writhing: ED50; for inhibition in vivo at 10 mg/kg: at 10 po (method: 10 mg/kg oral, 1 hour before acetic acid), read-out: AA Writhing: Suppression ratio of Pain response
Summary of the method: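 Male ICR mice (30 to 35 g) dosed orally at 10 mg/kg, then given 0.8% acetic acid i.p. 1 h later. Writhes counted for 10 min and expressed as % suppression against vehicle. ED50 derived by linear regression over at least three doses.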

| SMILES | ED50 (male ICR mouse [1]) | IC50 (5-HT1A receptor) | IC50 (5-HT2A receptor) | ED50 (male ICR mouse [2]; po) | inhibition at 1 µM (5-HT1A receptor) | inhibition at 1 µM (5-HT2A receptor) | inhibition in vivo at 10 mg/kg (male ICR mouse [2]; po, 1 h) | ED50 (male ICR mouse [2]; ip) | inhibition in vivo at 10 mg/kg (male ICR mouse [2]) |
| --- | --- | --- | --- | --- | --- | --- | --- | --- | --- |
| NC(=O)OC(CCN1CCN(c2ccccc2)CC1)c1ccccc1 (centres unmarked) [Example 1, Carbamic acid 1-phenyl-3-(4-phenyl-piperazin-1-yl)-propyl ester] | 8.43 mg/kg | 0.434 µM | 0.139 µM | 6.31 mg/kg | – | – | – | – | – |
| NC(=O)OC(CCN1CCN(c2ccccc2)CC1)c1ccc(Cl)cc1 (centres unmarked) [Example 2, Carbamic acid 1-(4-chloro-phenyl)-3-(4-phenyl-piperazin-1-yl)-propyl ester] | 2.2 mg/kg | – | – | 2.14 mg/kg | 64.6% | 84.6% | – | – | – |
| NC(=O)OC(CCN1CCN(c2ccccc2)CC1)c1cccc([N+](=O)[O-])c1 (centres unmarked) [Example 4, Carbamic acid 1-(3-nitro-phenyl)-3-(4-phenyl-piperazin-1-yl)-propyl ester] | – | – | – | – | 74.6% | 86.4% | 48% | – | – |
| CC(C)(C)c1ccc(C(CCN2CCN(c3ccccc3)CC2)OC(N)=O)cc1 (centres unmarked) [Example 5, Carbamic acid 1-(4-tert-butyl-phenyl)-3-(4-phenyl-piperazin-1-yl)-propyl ester] | – | – | – | – | 44.4% | 98.8% | 62% | – | – |
| NC(=O)OC(CCN1CCN(c2ccccc2)CC1)c1ccc(F)cc1 (centres unmarked) [Example 6, Carbamic acid 1-(4-fluoro-phenyl)-3-(4-phenyl-piperazin-1-yl)-propyl ester] | 4.45 mg/kg | – | – | 2.79 mg/kg | 65.5% | 84.7% | – | – | – |
| NC(=O)OC(CCN1CCN(c2ccccc2)CC1)c1cccc(Cl)c1 (centres unmarked) [Example 7, Carbamic acid 1-(3-chloro-phenyl)-3-(4-phenyl-piperazin-1-yl)-propyl ester] | – | – | – | – | 76.4% | 93.7% | 59% | – | – |
| COc1ccc(C(CCN2CCN(c3ccccc3)CC2)OC(N)=O)cc1 (centres unmarked) [Example 8, Carbamic acid 1-(4-methoxy-phenyl)-3-(4-phenyl-piperazin-1-yl)-propyl ester] | – | – | – | – | 67.7% | 82% | 43% | – | – |
| NC(=O)OC(CCN1CCN(c2ccccc2)CC1)c1ccc([N+](=O)[O-])cc1 (centres unmarked) [Example 9, Carbamic acid 1-(4-nitro-phenyl)-3-(4-phenyl-piperazin-1-yl)-propyl ester] | 2.39 mg/kg | – | – | – | 81.4% | 88% | 91% | – | – |
| NC(=O)OC(CCN1CCN(c2ccc([N+](=O)[O-])cc2)CC1)c1ccccc1 (centres unmarked) [Example 16, Carbamic acid 1-phenyl-3-[4-(4-nitro-phenyl)-piperazin-1-yl]-propyl ester] | 11.6 mg/kg | 6.57 µM | 2.05 µM | – | – | – | – | 2.92 mg/kg | – |
| COc1ccc(N2CCN(CCC(OC(N)=O)c3ccccc3)CC2)cc1 (centres unmarked) [Example 20, Carbamic acid 3-[4-(4-methoxy-phenyl)-piperazin-1-yl]-1-phenyl-propyl ester] | 5.77 mg/kg | 19.8 µM | 5.85 µM | 3.12 mg/kg | – | – | – | – | – |
| NC(=O)OC(CCN1CCN(c2ccc(F)cc2)CC1)c1ccccc1 (centres unmarked) [Example 21, Carbamic acid 3-[4-(4-fluoro-phenyl)-piperazin-1-yl]-1-phenyl-propyl ester] | – | 1.05 µM | 0.0645 µM | – | – | – | – | – | 88% |
| COc1ccccc1N1CCN(CCC(OC(N)=O)c2ccccc2)CC1 (centres unmarked) [Example 27, Carbamic acid 3-[4-(2-methoxy-phenyl)-piperazin-1-yl]-1-phenyl-propyl ester] | – | 0.0976 µM | 0.164 µM | 7.8 mg/kg | – | – | – | – | – |
| NC(=O)OC(CCN1CCN(c2cccc(Cl)c2)CC1)c1ccccc1 (centres unmarked) [Example 36, Carbamic acid 3-[4-(3-chloro-phenyl)-piperazin-1-yl]-1-phenyl-propyl ester] | – | 0.0938 µM | 0.0615 µM | 17.5 mg/kg | – | – | – | – | – |
| Cc1ccccc1N1CCN(CCC(OC(N)=O)c2ccccc2)CC1 (centres unmarked) [Example 37, Carbamic acid 1-phenyl-3-(4-o-tolylpiperazin-1-yl)-propyl ester] | 42.4 mg/kg | – | – | – | – | – | – | 1.96 mg/kg | – |
| NC(=O)OC(CCN1CCN(c2ccccc2F)CC1)c1ccccc1 (centres unmarked) [Example 41, Carbamic acid 3-[4-(2-fluoro-phenyl)-piperazin-1-yl]-1-phenyl-propyl ester] | 33.2 mg/kg | 0.16 µM | 0.11 µM | – | – | – | – | 0.34 mg/kg | – |
| COc1ccccc1N1CCN(CCC(OC(N)=O)c2ccc(F)cc2)CC1 (centres unmarked) [Example 78, Carbamic acid 1-(4-fluoro-phenyl)-3-[4-(2-methoxy-phenyl)-piperazin-1-yl]-propyl ester] | – | – | – | – | 79% | 71.5% | 34% | – | – |
| NC(=O)OC(CCN1CCN(c2ccc([N+](=O)[O-])cc2)CC1)c1ccc(F)cc1 (centres unmarked) [Example 79, Carbamic acid 1-(4-fluoro-phenyl)-3-[4-(4-nitro-phenyl)-piperazin-1-yl]-propyl ester] | – | – | – | – | 29.6% | 29.6% | 70% | – | – |
| Cc1ccccc1N1CCN(CCC(OC(N)=O)c2ccc(F)cc2)CC1 (centres unmarked) [Example 80, Carbamic acid 1-(4-fluoro-phenyl)-3-(4-o-tolyl-piperazin-1-yl)-propyl ester] | – | – | – | – | 75.3% | 76.8% | 29% | – | – |
| NC(=O)OC(CCN1CCN(c2ccc(F)cc2)CC1)c1ccc(F)cc1 (centres unmarked) [Example 81, Carbamic acid 1-(4-fluoro-phenyl)-3-[4-(4-fluoro-phenyl)-piperazin-1-yl]-propyl ester] | – | – | – | – | 60.9% | 93.9% | 52% | – | – |
| NC(=O)OC(CCCN1CCN(c2ncccc2Cl)CC1)c1ccccc1 (centres unmarked) [Example 97, Carbamic acid 4-[4-(3-chloro-pyridin-2-yl)-piperazin-1-yl]-1-phenyl-butyl ester] | – | 0.181 µM | 0.519 µM | – | – | – | – | – | – |
| COc1ccc(N2CCN(CC[C@@H](OC(N)=O)c3ccccc3)CC2)cc1 [Example 102, (R)-carbamic acid 3-[4-(4-methoxy-phenyl)-piperazin-1-yl]-1-phenyl-propyl ester] | 4.77 mg/kg | 4.31 µM | 2.78 µM | 3.15 mg/kg | – | – | – | – | – |
| COc1ccc(N2CCN(CC[C@H](OC(N)=O)c3ccccc3)CC2)cc1 [Example 106, (S)-carbamic acid 3-[4-(4-methoxy-phenyl)-piperazin-1-yl]-1-phenyl-propyl ester] | 12.5 mg/kg | – | – | – | – | – | – | 1.43 mg/kg | – |
